For test [1], the target named is T1, SHP2 protein (Homo sapiens, UniProt Q06124).
T1 sequence (Q06124 1-593): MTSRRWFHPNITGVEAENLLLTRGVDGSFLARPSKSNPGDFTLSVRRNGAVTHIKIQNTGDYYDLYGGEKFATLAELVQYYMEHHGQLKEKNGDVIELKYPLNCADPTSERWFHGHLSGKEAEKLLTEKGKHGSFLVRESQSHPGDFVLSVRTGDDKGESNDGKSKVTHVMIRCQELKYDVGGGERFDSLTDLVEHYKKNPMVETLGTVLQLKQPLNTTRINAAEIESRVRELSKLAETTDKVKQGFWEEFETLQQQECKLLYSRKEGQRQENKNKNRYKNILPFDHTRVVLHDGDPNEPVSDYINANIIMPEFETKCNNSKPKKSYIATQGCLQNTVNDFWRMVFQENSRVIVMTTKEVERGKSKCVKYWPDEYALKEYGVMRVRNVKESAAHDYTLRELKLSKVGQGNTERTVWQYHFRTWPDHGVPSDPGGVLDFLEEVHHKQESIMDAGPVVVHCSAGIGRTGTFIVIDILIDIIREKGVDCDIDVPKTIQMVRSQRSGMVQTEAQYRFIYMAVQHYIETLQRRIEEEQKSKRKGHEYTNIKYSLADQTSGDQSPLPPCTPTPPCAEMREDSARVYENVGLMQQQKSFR
The test is described as follows: Degradation activity on SHP2 protein in MIA Paca-2 cells (Western blot, DC50). It counts as cell-based. The arrangement: endogenous in cells; host or cells: MIA Paca-2 cells. Conditions: read-out: Degradation activity for differenct cell lines MIA Paca-2 (DC50). The procedure, abridged: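 Cells were treated 24 h at 37 °C with compound (0.1–100 nM final, 0.1% DMSO). SHP2 was measured by Western blot with GAPDH as loading control, densitometry normalized to DMSO (100%). DC50, the concentration giving 50% degradation, came from a dose-response fit.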

Test [2] has as its target T1, SHP2 protein. The test is described as follows: Degradation activity on SHP2 protein in NCI-H358 cells (Western blot, DC50). It counts as cell-based. The arrangement: endogenous in cells. Conditions: read-out: Degradation activity for differenct cell lines NCI-H358 (DC50). The protocol: (1) MV-411 cells were cultured in the cell culture medium, and then well-growing cells were selected and inoculated in a 12-well plate, with 1 mL/well and 1×10^6 cells/well. The plate was incubated overnight in a 5% CO2 cell incubator at 37° C.
(2) 10 mM storage solution of each drug was prepared using dimethylsulfoxide (DMSO). The stock solution was diluted gradually with DMSO before use, and then 1 μL of the compound solution was added to the cell culture well (to ensure that the DMSO concentration in the culture system was […]), so that the final drug concentration is 100 nM, 10 nM, 3 nM, 1 nM, 0.3 nM, and 0.1 nM. Two wells were set for each concentration. The plate was gently shaken and mixed. Additionally, negative control wells (containing an equal amount of DMSO) and positive control wells were included.
(3) After 24 hours of cultivation, the cells were lysed using RIPA cell lysate, and the proteins were extracted. The protein concentration was measured using a BCA assay kit. 5× concentrated protein buffer was loaded, heated at 100° C. for 5 min, and then the sample was stored at −20° C.
(4) For each well, 30 μg of protein was loaded to polyacrylamide gel for electrophoresis.
(5) The protein was transferred from polyacrylamide gel to PVDF membrane, and sealed at room temperature with 5% skimmed milk for 1 h, which was then incubated with the primary antibodies (Anti-SHP2 rabbit mAb and Anti-GAPDH rabbit mAb) at 4° C. overnight. The membrane was washed three times with TBST solution, 10 minutes for each time. After that, the membrane was incubated with the secondary antibodies (horseradish peroxidase labeled goat anti-rabbit IgG) at room temperature for 2 h, and then washed three times with TBST solution, 10 minutes for each time, followed by exposure.
(6) The images were analyzed with Image J grayscale, and the degradation ratio of protein bands in the test group was calculated, based on the negative control group (DMSO) (100%).
(7) Using the Dose-response-inhibition equation in the data processing software GraphPad Prism 8, the DC50 value was obtained (which represents the drug concentration corresponding to 50% degradation of the target protein).
Using similar methods and different cell lines, the degradation activity of the compound according to the present invention on SHP2 protein of different cell lines was tested under suitable culture conditions.
On the technique in general: A western blot detects proteins with antibodies after separation by electrophoresis.

Regarding `Cc1ncsc1-c1ccc([C@H](C)NC(=O)[C@@H]2C[C@@H](O)CN2C(=O)[C@@H](NC(=O)c2cnc(N3CCN(CCCCC(=O)Nc4cccc(Sc5cnc(N6CCC(C)(N)CC6)cn5)c4)CC3)nc2)C(C)(C)C)cc1` [Compound 221], the DC50 in test [1] and in test [2] was < 100 nM throughout.
Regarding `CC1(N)CCN(c2cnc(Sc3cccc(NC(=O)CCCCCCCCN4CC=C(c5ccc(C(=O)NCc6ccc7c(c6)CN(C6CCC(=O)NC6=O)C7=O)nc5)C(C)(C)C4)c3)cn2)CC1` (stereo not shown) [Compound 222], the half-maximal degradation concentration (DC50) in test [1] and in test [2] was < 100 nM in each case.
As to `CCC1(N)CCN(c2cnc(Sc3cccc(NC(=O)CCCCCCCCN4CCC(c5ccc(C(=O)NCc6ccc7c(c6)CN(C6CCC(=O)NC6=O)C7=O)nn5)CC4)c3)cn2)CC1` (stereo not shown) [Compound 223], the half-maximal degradation concentration (DC50) in test [1] and in test [2] was < 100 nM throughout.
On to `CC1(N)C2CCC1CN(c1cnc(Sc3cccc(NC(=O)CCCCCCCCN4CCC(c5ccc(C(=O)NCc6ccc7c(c6)CN(C6CCC(=O)NC6=O)C7=O)nn5)CC4)c3)cn1)C2` (stereo not shown) [Compound 224], for which the 50% degradation concentration (DC50) in test [1] and in test [2] was < 100 nM each time.
`CCC1(N)CCN(c2cnc(Sc3cccc(NC(=O)CCCCCCCCN4CCN(c5ccc(C(=O)NCc6ccc7c(c6)CN(C6CCC(=O)NC6=O)C7=O)nn5)CC4C(F)(F)F)c3)cn2)CC1` (stereo not shown) [Compound 226]: the DC50 in test [1] and in test [2] was < 100 nM throughout.
For the compound `CC1(N)CCN(c2cnc(Sc3cccc(NC(=O)CCCCCCCCN4CCN(c5ccc(C(=O)NCc6ccc7c(c6)CN(C6CCC(=O)NC6=O)C7=O)nc5Cl)CC4C(F)(F)F)c3)cn2)CC1` (stereo not shown) [Compound 227], the half-maximal degradation concentration (DC50) in test [1] and in test [2] was < 100 nM in each case.
For the compound `CC1CC(c2ccc(C(=O)NCc3ccc4c(c3)CN(C3CCC(=O)NC3=O)C4=O)nn2)=CCN1CCCCCCCCC(=O)Nc1cccc(Sc2cnc(N3CCC(C)(N)CC3)cn2)c1` (stereo not shown) [Compound 228], the DC50 in test [1] and in test [2] was < 100 nM each time.
Take `CC1(N)CCN(c2cnc(Sc3cccc(NC(=O)CCCCCCCCN4CCN(c5ccc(C(=O)NCc6ccc7c(c6)CN(C6CCC(=O)NC6=O)C7=O)cc5)CC4)c3)cn2)CC1` (stereo not shown) [Compound 229]: the DC50 in test [1] and in test [2] was < 100 nM in each case.
For the compound `Cc1ncsc1-c1ccc([C@H](C)NC(=O)[C@@H]2C[C@@H](O)CN2C(=O)[C@@H](NC(=O)c2cnc(N3CCN(CCCC(=O)Nc4cccc(Sc5cnc(N6CCC7(CC6)CO[C@@H](C)[C@H]7N)cn5)c4)CC3)nc2)C(C)(C)C)cc1` [Compound 230], the half-maximal degradation concentration (DC50) in test [1] and in test [2] was < 100 nM each time.
As for `Cc1ncsc1-c1ccc([C@H](C)NC(=O)[C@@H]2C[C@@H](O)CN2C(=O)[C@@H](NC(=O)c2cnc(N3CCN(CC(=O)Nc4cccc(Sc5cnc(N6CCC(C)(N)CC6)cn5)c4)CC3)nc2)C(C)(C)C)cc1` [Compound 231], the 50% degradation concentration (DC50) in test [1] and in test [2] was > 1000 nM throughout.
For the compound `CC1(N)CCN(c2cnc(Sc3cccc(NC(=O)CCCCCCCCN4C[C@@H]5C[C@H]4CN5c4ccc(C(=O)NCc5ccc6c(c5)CN(C5CCC(=O)NC5=O)C6=O)nn4)c3)cn2)CC1` (stereo partly shown) [Compound 237], the DC50 in test [1] and in test [2] was < 100 nM in each case.
Turning to `CC1(N)CCN(c2cnc(Sc3cccc(NC(=O)CCCCCCCCN4C[C@H]5C[C@@H]4CN5c4ccc(C(=O)NCc5ccc6c(c5)CN(C5CCC(=O)NC5=O)C6=O)nn4)c3)cn2)CC1` (stereo partly shown) [Compound 238], the DC50 in test [1] and in test [2] was < 100 nM in each case.
With `C[C@@H]1CN(CCCCCCCCC(=O)Nc2cccc(Sc3cnc(N4CCC(C)(N)CC4)cn3)c2)CCN1c1ccc(C(=O)NCc2ccc3c(c2)CN(C2CCC(=O)NC2=O)C3=O)nn1` (stereo partly shown) [Compound 239], the DC50 in test [1] and in test [2] was < 100 nM each time.
Take `Cc1ncsc1-c1ccc([C@H](C)NC(=O)[C@@H]2C[C@@H](O)CN2C(=O)[C@@H](NC(=O)c2cnc(N3CCN(CCCCCCC(=O)Nc4cccc(Sc5cnc(N6CCC(C)(N)CC6)cn5)c4)CC3)nc2)C(C)(C)C)cc1` [Compound 241]: the DC50 in test [1] and in test [2] was < 100 nM throughout.
As to `CC1CN(CCCCCCCCC(=O)Nc2cccc(Sc3cnc(N4CCC(C)(N)CC4)cn3)c2)CC=C1c1ccc(C(=O)NC(C)c2ccc3c(c2)CN(C2CCC(=O)NC2=O)C3=O)nc1` (stereo not shown) [Compound 242], the 50% degradation concentration (DC50) in test [1] and in test [2] was < 100 nM each time.
Turning to `CC1CN(CCCCCCCCC(=O)Nc2cccc(Sc3cnc(N4CCC(C)(N)CC4)cn3)c2)CC=C1c1ccc(C(=O)NCc2ccc3c(c2)CN(C2CCC(=O)NC2=O)C3=O)nc1` (stereo not shown) [Compound 243], the DC50 in test [1] and in test [2] was < 100 nM throughout.
Regarding `CC1(N)CCN(c2cnc(Sc3cccc(NC(=O)CCCCc4ccc(N5CCN(c6ccc(C(=O)NCc7ccc8c(c7)CN(C7CCC(=O)NC7=O)C8=O)nn6)CC5)cc4)c3)cn2)CC1` (stereo not shown) [Compound 244], the 50% degradation concentration (DC50) in test [1] and in test [2] was < 100 nM each time.
For the compound `CC(CCCCCCCC(=O)Nc1cccc(Sc2cnc(N3CCC(C)(N)CC3)cn2)c1)N1CC=C(c2ccc(C(=O)NCc3ccc4c(c3)CN(C3CCC(=O)NC3=O)C4=O)nc2)C(C)(C)C1` (stereo not shown) [Compound 245], the DC50 in test [1] and in test [2] was < 100 nM in each case.
Consider `Cn1nc(C(=O)NCc2ccc3c(c2)CN(C2CCC(=O)NC2=O)C3=O)cc1C1=CCN(CCCCCCCCC(=O)Nc2cccc(Sc3cnc(N4CCC(C)(N)CC4)cn3)c2)CC1` (stereo not shown) [Compound 246], for which the DC50 in test [1] and in test [2] was < 100 nM each time.
Take `CC1(N)CCN(c2cnc(Sc3cccc(NCc4ccc(CN5CCN(c6ccc(C(=O)NCc7ccc8c(c7)CN(C7CCC(=O)NC7=O)C8=O)nn6)CC5)cc4)c3)cn2)CC1` (stereo not shown) [Compound 247]: the 50% degradation concentration (DC50) (usually the concentration at which degradation of the target reaches its halfway point) was > 1000 nM in test [1] and 100 to 1000 nM in test [2].
Consider `CC1(N)CCN(c2cnc(Sc3cccc(NC(=O)CCN4CCN(c5ccc(C(=O)NCc6ccc7c(c6)CN(C6CCC(=O)NC6=O)C7=O)nn5)CC4)c3)cn2)CC1` (stereo not shown) [Compound 248], for which the DC50 in test [1] and in test [2] was < 100 nM in each case.
`C[C@H]1CN(c2ccc(C(=O)NCc3ccc4c(c3)CN(C3CCC(=O)NC3=O)C4=O)nn2)CCN1CCCCCCCCC(=O)Nc1cccc(Sc2cnc(N3CCC(C)(N)CC3)cn2)c1` (stereo partly shown) [Compound 249]: the half-maximal degradation concentration (DC50) in test [1] and in test [2] was < 100 nM in each case.
Take `C[C@H]1CN(CCCCCCCCC(=O)Nc2cccc(Sc3cnc(N4CCC(C)(N)CC4)cn3)c2)CCN1c1ccc(C(=O)NCc2ccc3c(c2)CN(C2CCC(=O)NC2=O)C3=O)nn1` (stereo partly shown) [Compound 250]: the half-maximal degradation concentration (DC50) in test [1] and in test [2] was < 100 nM each time.
With `CC1(N)CCN(c2cnc(Sc3cccc(NC(=O)CCCCCCCCN4CCN(c5ccc(C(=O)NCc6ccc7c(c6)CN(C6CCC(=O)NC6=O)C7=O)nn5)C[C@@H]4CO)c3)cn2)CC1` (stereo partly shown) [Compound 251], the half-maximal degradation concentration (DC50) in test [1] and in test [2] was < 100 nM each time.
As to `C[C@@H]1CN(c2ccc(C(=O)NCc3ccc4c(c3)CN(C3CCC(=O)NC3=O)C4=O)nn2)CCN1CCCCCCCCC(=O)Nc1cccc(Sc2cnc(N3CCC(C)(N)CC3)cn2)c1` (stereo partly shown) [Compound 252], the DC50 in test [1] and in test [2] was < 100 nM throughout.
For the compound `CC1(N)CCN(c2cnc(Sc3cccc(NC(=O)CCCCN4CCC(N5CCN(c6ccc(C(=O)NCc7ccc8c(c7)CN(C7CCC(=O)NC7=O)C8=O)nn6)CC5)C4)c3)cn2)CC1` (stereo not shown) [Compound 266], the DC50 is > 1000 nM in test [1] and 100 to 1000 nM in test [2].

Values taken from US20240383908A1, “SYNTHESIS AND APPLICATION OF PHOSPHATASE DEGRADER” (HINOVA PHARMACEUTICALS INC., priority 2021, published 2024).
